This is an account of results in US20030125234A1, “Alteration of protein stability” (priority 2001, published 2003).

Holding throughout (type): biochemical
Experiment [1] concerns the target T1, chicken egg white lysozyme (Gallus gallus, UniProt P00698).
T1 construct: chicken egg white lysozyme [Sigma]; purchased Sigma; host or cells: egg white
Kind of experiment: Lysozyme aggregation (turbidity at 360 nm) induced by DTT. The conditions noted are these: for inhibition index: Lysozyme 0.4 mg/mL, 25° C., DTT, compound 1,000×, standard deviation in parenthesis. Put shortly: (§1)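 Aggregation is scored as optical density at 360 nm over 1 h relative to untreated protein. Porcine somatotropin (1.27 mg/mL) is heated to 60° C in PEG 8000 (20 mg/mL); ADH (1 mg/mL) is oxidized with 7.76E-5 M Cu(OP)2 at 37° C; lysozyme and HLF (0.4 mg/mL) are reduced with 1.27E-4 M DTT at 25° C and 43° C.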

The target in another experiment is T2, bovine alpha-lactalbumin (Bos taurus, UniProt P00711).
T2 construct: purchased Sigma
T2 sequence (P00711 20-142): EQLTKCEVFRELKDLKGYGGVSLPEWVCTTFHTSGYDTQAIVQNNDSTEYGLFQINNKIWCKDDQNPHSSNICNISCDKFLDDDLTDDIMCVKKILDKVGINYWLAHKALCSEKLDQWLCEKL
The experiment is described as follows: Alpha-lactalbumin aggregation (turbidity at 360 nm) induced by DTT. The following applies: for inhibition index: α Lactalbumin 0.4 mg/mL, 37° C., DTT, compound 1,000×, standard deviation in parenthesis. Put shortly:
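Bovine alpha-lactalbumin (0.4 mg/mL (2.82E-5 M)) was prepared in 50 mM sodium phosphate, 100 mM sodium chloride and 2 mM EDTA, pH 6.2. Aggregation was triggered with 20 μL of 1 M DTT […] at 37° C. and followed for 1 hour as optical density at 360 nm, compared against protein without the dipolar compound.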

The target in experiment [2] is T3, human apolactoferrin (HLF) (Homo sapiens, UniProt P02788).
T3 construct: purchased Sigma
T3 sequence (P02788 20-710): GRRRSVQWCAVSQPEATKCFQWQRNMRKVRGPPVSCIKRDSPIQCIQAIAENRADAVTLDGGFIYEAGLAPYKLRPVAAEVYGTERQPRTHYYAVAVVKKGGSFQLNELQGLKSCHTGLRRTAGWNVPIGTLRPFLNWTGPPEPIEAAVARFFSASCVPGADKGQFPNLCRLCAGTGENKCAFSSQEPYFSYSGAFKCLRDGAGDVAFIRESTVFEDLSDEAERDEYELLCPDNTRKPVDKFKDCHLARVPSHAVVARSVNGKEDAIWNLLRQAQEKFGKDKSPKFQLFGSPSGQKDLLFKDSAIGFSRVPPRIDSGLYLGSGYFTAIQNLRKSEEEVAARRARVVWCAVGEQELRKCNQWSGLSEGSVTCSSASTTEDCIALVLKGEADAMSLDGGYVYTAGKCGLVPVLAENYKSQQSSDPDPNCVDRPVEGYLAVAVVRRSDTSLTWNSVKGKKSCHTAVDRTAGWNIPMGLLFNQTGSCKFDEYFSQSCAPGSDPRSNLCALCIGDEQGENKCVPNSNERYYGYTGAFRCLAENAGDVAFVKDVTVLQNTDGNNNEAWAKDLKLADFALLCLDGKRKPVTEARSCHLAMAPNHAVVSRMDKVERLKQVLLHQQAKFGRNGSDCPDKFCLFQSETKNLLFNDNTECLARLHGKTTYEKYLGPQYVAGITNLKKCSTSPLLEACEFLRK
The experiment is described as follows: HLF aggregation (turbidity at 360 nm) induced by DTT. The following applies: for inhibition index: HLF 0.4 mg/mL, 43° C., DTT, head 10,000×, standard deviation in parenthesis. Put shortly: as §1

Experiment [3] has as its target T4, porcine heart citrate synthase (CS) (Sus scrofa, UniProt P00889).
T4 construct: porcine heart citrate synthase (CS); from tissue; host or cells: porcine heart
T4 sequence (P00889 28-464): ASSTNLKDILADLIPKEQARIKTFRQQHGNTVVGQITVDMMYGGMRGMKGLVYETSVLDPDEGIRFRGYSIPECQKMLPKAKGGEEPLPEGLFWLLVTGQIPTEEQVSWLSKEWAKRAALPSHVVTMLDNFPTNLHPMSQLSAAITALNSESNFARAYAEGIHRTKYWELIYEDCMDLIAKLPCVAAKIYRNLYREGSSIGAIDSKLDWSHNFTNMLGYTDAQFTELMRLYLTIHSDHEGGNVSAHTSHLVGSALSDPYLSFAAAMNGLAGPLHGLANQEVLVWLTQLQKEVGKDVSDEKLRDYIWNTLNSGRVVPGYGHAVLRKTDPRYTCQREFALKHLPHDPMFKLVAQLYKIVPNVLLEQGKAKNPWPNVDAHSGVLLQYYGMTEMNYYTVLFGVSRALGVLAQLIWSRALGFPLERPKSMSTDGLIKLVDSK
Kind of experiment: Citrate synthase thermal aggregation (turbidity at 360 nm). The conditions noted are these: for inhibition index: CS 96 μg/mL, 45° C., standard deviation in parenthesis. Put shortly: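 Heat-induced aggregation followed as OD360 for 1 h, cycled every 30 s: citrate synthase 96 μg/mL in HEPES/KCl/(NH4)2SO4 buffer pH 7.8 at 45° C; FGF-1 50 μg/mL in phosphate/NaCl pH 7.2 at 50° C. Rate taken as maximum slope of OD versus time, compared with protein without additive.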

“Also recorded” adds a separate entry of the source. Residues, ends and D or L forms follow the SMILES beside them.

T1 sequence (P00698 19-147): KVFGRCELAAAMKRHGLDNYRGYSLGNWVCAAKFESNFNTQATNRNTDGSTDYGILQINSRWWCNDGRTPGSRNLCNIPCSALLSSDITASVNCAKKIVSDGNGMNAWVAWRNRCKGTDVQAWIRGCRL

Turning to `NCCCCCCC(=O)O` [7-aminoheptanoate, 7-aminoheptanoic acid], the inhibition index in experiment [1] is on record as 1.3 (0.2); at bovine alpha-lactalbumin it was 3.9 (2.1); in experiment [2] (second HLF column), 4.7 (0.7); in experiment [3] (compound 10,000X), 0.5 (0.1); in experiment [3] (compound 50,000X) it was 1.7 (0.4). The “inhibition of α-lactalbumin aggregation, in words” value on bovine alpha-lactalbumin was “Potent inhibitors”.
As for `O=C(O)CCC(=O)O` [succinate, succinic acid], the inhibition index in experiment [1] is 1.0 (0.3); on bovine alpha-lactalbumin, 1.1 (0.3); in experiment [2] (second HLF column), 33.7 (11.9); in experiment [3] (compound 10,000X), 2.1 (0.5); in experiment [3] (compound 50,000X) it was 9.6.
In the case of pentaglycine, the inhibition index is given as 0.2 (0.1) in experiment [1]; 3.1 (1.2) on bovine alpha-lactalbumin; 979.0 (7.5) in experiment [2] (first HLF column); 0.5 (0.0) in experiment [2] (second HLF column); 0.6 (0.2) in experiment [3] (compound 1,000X). The “inhibition of α-lactalbumin aggregation, in words” value against bovine alpha-lactalbumin is reported as “Potent inhibitors”.
As for `O=C(O)C(=O)O` [oxalate, oxalic acid], the inhibition index in experiment [1] is recorded as 1.6 (1.0); at bovine alpha-lactalbumin it was 1.3 (0.2); in experiment [2] (second HLF column), 666.9; in experiment [3] (compound 10,000X), 1.9 (0.5); in experiment [3] (compound 50,000X), 6.2 (3.8).
For `O=C([O-])CC(=O)[O-].[Na+].[Na+]` [malonate, sodium malonate], in that order: 1.5 (0.4), 1.8 (0.1), 1714.1, 2.4 (0.5) and 9.
On to `O=C(O)CCCCCC(=O)O` [pimelate, pimelic acid], for which the inhibition index in experiment [1] is listed as 2.0 (0.7); on bovine alpha-lactalbumin, 1.3 (0.3); in experiment [2] (second HLF column) it was 78.9 (68.2); in experiment [3] (compound 10,000X), 1.4 (0.4); in experiment [3] (compound 50,000X), 6.7 (0.1).
On the same counts, the results for `NCCCCC(=O)O` [5-aminovalerate, 5-aminovaleric acid] are 1.5 (0.4), 2.1 (0.8), 8.4 (2.6), 0.7 (0.1) and 1.9 (0.7).
On the same counts, the results for `NCCCCCCN` [1,6-diaminohexane] are 1.0 (0.1), 1.3 (0.4), 18.0 (4.9), 0.6 (0.2) and 4.8 (1.5).
With `NCC(=O)O` [glycine], the inhibition index in experiment [1] is given as 1.0 (0.2); on bovine alpha-lactalbumin, 1.4 (0.3); in experiment [2] (second HLF column), 1.5 (0.1); in experiment [3] (compound 10,000X), 0.8 (0.2).
`NCCCCCCCN` [1,7-diaminoheptane]: the inhibition index in experiment [1] was 1.0 (0.3); at bovine alpha-lactalbumin, 1.8 (0.7); in experiment [2] (second HLF column), 11.0 (2.1); in experiment [3] (compound 10,000X), 0.6 (0.2); in experiment [3] (compound 50,000X) it was 1.7 (0.7).
Take tetraglycine: the inhibition index in experiment [1] is listed as 2.1 (0.5); at bovine alpha-lactalbumin it was 1.3 (0.4); in experiment [2] (first HLF column), 8.3 (9.5); in experiment [2] (second HLF column), 0.1; in experiment [3] (compound 1,000X), 1.5 (0.1).
For `NCCCCCC(=O)O` [6-aminocaproate, 6-aminocaproic acid], the inhibition index in experiment [1] is recorded as 0.8 (0.2); on bovine alpha-lactalbumin, 2.3 (0.6); in experiment [2] (second HLF column), 7.9 (3.4); in experiment [3] (compound 10,000X), 0.5 (0.1); in experiment [3] (compound 50,000X) it was 1.5 (0.8).
As for `NCCCN` [1,3-diaminopropane], the inhibition index in experiment [1] is 2.7 (0.4); at bovine alpha-lactalbumin, 0.9 (0.3); in experiment [2] (second HLF column) it was 31.5 (12.0); in experiment [3] (compound 10,000X), 0.7 (0.3); in experiment [3] (compound 50,000X), 7.7.
As for `NCC(=O)NCC(=O)NCC(=O)O` [triglycine] (H-Gly-Gly-Gly-OH), the inhibition index in experiment [1] was 1.6 (0.3); at bovine alpha-lactalbumin, 0.9 (0.1); in experiment [2] (first HLF column), 0.2 (0.1); in experiment [2] (second HLF column), 5.7 (4.0); in experiment [3] (compound 1,000X), 1.0 (0.2); in experiment [3] (compound 10,000X), 0.7 (0.2). In addition, the inhibition index in experiment [3] (compound 50,000X) is 1.0. Further, the “inhibition of citrate synthase aggregation, in words” value in experiment [3] is “Potent inhibitors”.
Consider `NCCCCCN` [1,5-diaminopentane], for which the inhibition index is listed as 1.3 (0.3) in experiment [1]; 0.9 (0.0) on bovine alpha-lactalbumin; 28.8 (13.3) in experiment [2] (second HLF column); 0.8 (0.2) in experiment [3] (compound 10,000X); 8.3 (4.5) in experiment [3] (compound 50,000X).
With `NCCC(=O)O` [beta-alanine], the inhibition index in experiment [1] was 1.1 (0.3); on bovine alpha-lactalbumin, 2.1 (0.4); in experiment [2] (second HLF column) it was 24.2 (4.4); in experiment [3] (compound 10,000X), 0.6 (0.1); in experiment [3] (compound 50,000X) it was 1.9 (0.8). Also, in experiment [2], the “inhibition of lactoferrin (HLF) aggregation, in words” value is listed as “effective inhibitors”.
With `NCCCC(=O)O` [4-aminobuytrate, 4-aminobutyric acid], the inhibition index in experiment [1] is 1.4 (0.4); at bovine alpha-lactalbumin, 2.0 (0.8); in experiment [2] (second HLF column) it was 9.5 (1.9); in experiment [3] (compound 10,000X) it was 0.6 (0.1); in experiment [3] (compound 50,000X) it was 1.2 (0.4).
With `NCCCCN` [1,4-diaminobutane], the inhibition index was 1.6 (0.2) in experiment [1]; 1.0 (0.2) at bovine alpha-lactalbumin; 34.5 (13.0) in experiment [2] (second HLF column); 0.9 (0.3) in experiment [3] (compound 10,000X); 4.0 (2.3) in experiment [3] (compound 50,000X).
Turning to `O=C(O)CCCCCCC(=O)O` [suberate, suberic acid], the inhibition index in experiment [1] was 1.4 (0.2); at bovine alpha-lactalbumin, 2.0 (0.7); in experiment [2] (second HLF column), 95.4 (34.6); in experiment [3] (compound 10,000X) it was 1.1 (0.2); in experiment [3] (compound 50,000X) it was 14.1 (2.1).
As for `NCCN` [ethylenediamine], the “inhibition of lysozyme aggregation, in words” value in experiment [1] is recorded as “effective inhibitors; also recorded: strongly inhibited”. In addition, the inhibition index in experiment [1] is 70.2 (6.8); on bovine alpha-lactalbumin it was 0.7 (0.4); in experiment [2] (second HLF column), 44.5 (13.9); in experiment [3] (compound 10,000X), 1.8 (0.5); in experiment [3] (compound 50,000X) it was 18.5.
Take diglycine: the inhibition index in experiment [1] was 0.9 (0.0); on bovine alpha-lactalbumin, 1.0 (0.0); in experiment [2] (first HLF column) it was 7.4 (1.0); in experiment [2] (second HLF column) it was 10.0; in experiment [3] (compound 1,000X) it was 0.8 (0.1); in experiment [3] (compound 10,000X) it was 0.9 (0.3). In addition, the inhibition index in experiment [3] (compound 50,000X) is on record as 1.5 (0.2). In experiment [3], the “inhibition of citrate synthase aggregation, in words” value was “Potent inhibitors”.
For `O=C(O)CCCCC(=O)O` [adipate, adipic acid], the inhibition index is listed as 1.4 (0.8) in experiment [1]; 1.2 (0.3) at bovine alpha-lactalbumin; 113.0 in experiment [2] (second HLF column); 1.2 (0.5) in experiment [3] (compound 10,000X); 19.6 (17.1) in experiment [3] (compound 50,000X).
Consider Lys-Lys, for which the inhibition index in experiment [1] is given as 1.3 (0.1); on bovine alpha-lactalbumin, 1.0 (0.1); in experiment [2] (first HLF column), 13.5 (1.2); in experiment [2] (second HLF column), 11.2; in experiment [3] (compound 1,000X), 0.9 (0.1); in experiment [3] (compound 10,000X), 1.6 (0.3). In addition, the inhibition index in experiment [3] (compound 50,000X) is recorded as 86.8.
